Test results from patent US7473669B2, “Substituted 4,5-dihydro-1,2,4-triazin-6-ones, 1,2,4-triazin-6-ones, and their use as fungicides” (priority 2005, dated 2009).

How the values were obtained:
Format in all cases: in vivo
Leptosphaeria nodorum = assay: Glume Blotch of Wheat greenhouse one-day protectant test; details: Parastagonospora nodorum, 24 h; wheat plants, one-day protectant test, 200 ppm application rate; read-out: LEPTNO percent control rating
Erysiphe cichoracaerum = assay: Cucumber Powdery Mildew greenhouse one-day protectant test; details: 24 h, cucumber plants, one-day protectant test, 200 ppm application rate, read-out: ERYSCI percent control rating
[1] = system: Puccinia recondita tritici; assay: Leaf Rust of Wheat greenhouse one-day protectant test; details: 24 h, wheat plants, one-day protectant test, 200 ppm application rate, read-out: PUCCRT percent control rating
Colletotricum lagenarium = assay: Cucumber Anthracnose greenhouse one-day protectant test; details: Cucumis sativus, 24 h, cucumber plants, one-day protectant test, 200 ppm application rate; read-out: COLLLA percent control rating
Phytophthora infestans = assay: whole plant or invertebrate; details: in Solanum lycopersicum, 24 h, read-out: PHYTIN percent control rating, tomato plants, one-day protectant test, 200 ppm application rate
Pyricularia oryzae = assay: whole plant or invertebrate; details: 24 h, read-out: PYRIOR percent control rating

`O=C1C(SC2CCCCC2)NC(c2cccc(C(=NOCc3ccccc3)c3ccccc3)c2)=NN1CC(F)(F)F` (stereo not shown) [Compound 57] was tested, and the pest or weed control at 200 ppm (Leptosphaeria nodorum) was 0 to 49%, the pest or weed control at 200 ppm (Erysiphe cichoracaerum) was 0 to 49% and the pest or weed control at 200 ppm [1] was 0 to 49%. For the same molecule, the pest or weed control at 200 ppm (Colletotricum lagenarium) was 0 to 49%, the pest or weed control at 200 ppm (Phytophthora infestans) was 0 to 49% and the pest or weed control at 200 ppm (Pyricularia oryzae) was 0 to 49%.
With `O=C1CNC(c2cccc(O)c2)=NN1CC(F)(F)F` [Compound 22] the pest or weed control at 200 ppm (Leptosphaeria nodorum) was 0 to 49%, the pest or weed control at 200 ppm (Erysiphe cichoracaerum) was 0 to 49% and the pest or weed control at 200 ppm [1] was 50 to 79%. The pest or weed control at 200 ppm (Colletotricum lagenarium) was 0 to 49%, the pest or weed control at 200 ppm (Phytophthora infestans) was 0 to 49% and the pest or weed control at 200 ppm (Pyricularia oryzae) was 0 to 49%.
`COc1ccccc1-c1cccc(C2=NN(CC(F)(F)F)C(=O)C(SC3CCCCC3)N2)c1` (stereo not shown) [Compound 53] gave a pest or weed control at 200 ppm (Leptosphaeria nodorum) of 80 to 100%, a pest or weed control at 200 ppm (Erysiphe cichoracaerum) of 0 to 49% and a pest or weed control at 200 ppm [1] of 80 to 100%. The pest or weed control at 200 ppm (Colletotricum lagenarium) was 50 to 79%, the pest or weed control at 200 ppm (Phytophthora infestans) was 0 to 49% and the pest or weed control at 200 ppm (Pyricularia oryzae) was 80 to 100%.
In the case of `CCCCN1N=C(c2ccc(Oc3cccnc3)cc2)NCC1=O` [Compound 16], the pest or weed control at 200 ppm (Leptosphaeria nodorum) is reported as 0 to 49%, the pest or weed control at 200 ppm (Erysiphe cichoracaerum) is reported as 0 to 49% and the pest or weed control at 200 ppm [1] is reported as 80 to 100%. It also gave a pest or weed control at 200 ppm (Colletotricum lagenarium) of 0 to 49%, a pest or weed control at 200 ppm (Phytophthora infestans) of 0 to 49% and a pest or weed control at 200 ppm (Pyricularia oryzae) of 0 to 49%.
With `O=C1C(SC2CCCCC2)NC(c2ccc(Oc3ccccc3)c(-c3ccccc3)c2)=NN1CC(F)(F)F` (stereo not shown) [Compound 45] the pest or weed control at 200 ppm (Leptosphaeria nodorum) was 80 to 100%, the pest or weed control at 200 ppm (Erysiphe cichoracaerum) was 0 to 49% and the pest or weed control at 200 ppm [1] was 50 to 79%. It also gave a pest or weed control at 200 ppm (Colletotricum lagenarium) of 50 to 79%, a pest or weed control at 200 ppm (Phytophthora infestans) of 0 to 49% and a pest or weed control at 200 ppm (Pyricularia oryzae) of 80 to 100%.
`O=c1cnc(-c2cc(Cl)cc(Cl)c2)nn1CCOc1ccccc1` [Compound 87] showed a pest or weed control at 200 ppm (Leptosphaeria nodorum) of 0 to 49%, a pest or weed control at 200 ppm (Erysiphe cichoracaerum) of 0 to 49% and a pest or weed control at 200 ppm [1] of 0 to 49%. For the same molecule, the pest or weed control at 200 ppm (Colletotricum lagenarium) was 0 to 49%, the pest or weed control at 200 ppm (Phytophthora infestans) was 0 to 49% and the pest or weed control at 200 ppm (Pyricularia oryzae) was 0 to 49%.
For `N#CCCN1N=C(c2cccc(OCc3ccccc3)c2)NCC1=O` [Compound 18], the pest or weed control at 200 ppm (Leptosphaeria nodorum) was 50 to 79%, the pest or weed control at 200 ppm (Erysiphe cichoracaerum) was 0 to 49% and the pest or weed control at 200 ppm [1] was 80 to 100%. It also gave a pest or weed control at 200 ppm (Colletotricum lagenarium) of 50 to 79%, a pest or weed control at 200 ppm (Phytophthora infestans) of 0 to 49% and a pest or weed control at 200 ppm (Pyricularia oryzae) of 50 to 79%.
Molecule `Cc1cc(C)cc(-c2ncc(=O)n(CCOc3ccccc3)n2)c1` [Compound 86] has a pest or weed control at 200 ppm (Leptosphaeria nodorum) of 80 to 100%, a pest or weed control at 200 ppm (Erysiphe cichoracaerum) of 0 to 49% and a pest or weed control at 200 ppm [1] of 80 to 100%. For the same molecule, the pest or weed control at 200 ppm (Colletotricum lagenarium) was 80 to 100%, the pest or weed control at 200 ppm (Phytophthora infestans) was 0 to 49% and the pest or weed control at 200 ppm (Pyricularia oryzae) was 80 to 100%.
`O=C1C(SC2CCCCC2)NC(c2cccc(-c3ccccc3OC(F)(F)F)c2)=NN1CC(F)(F)F` (stereo not shown) [Compound 52] gave a pest or weed control at 200 ppm (Leptosphaeria nodorum) of 80 to 100%, a pest or weed control at 200 ppm (Erysiphe cichoracaerum) of 0 to 49% and a pest or weed control at 200 ppm [1] of 80 to 100%. For the same molecule, the pest or weed control at 200 ppm (Colletotricum lagenarium) was 0 to 49%, the pest or weed control at 200 ppm (Phytophthora infestans) was 0 to 49% and the pest or weed control at 200 ppm (Pyricularia oryzae) was 80 to 100%.
`Cc1cc(C)cc(-c2ncc(=O)n(Cc3c(F)c(F)c(F)c(F)c3F)n2)c1` [Compound 85] gave a pest or weed control at 200 ppm (Leptosphaeria nodorum) of 80 to 100%, a pest or weed control at 200 ppm (Erysiphe cichoracaerum) of 0 to 49% and a pest or weed control at 200 ppm [1] of 80 to 100%. The pest or weed control at 200 ppm (Colletotricum lagenarium) was 80 to 100%, the pest or weed control at 200 ppm (Phytophthora infestans) was 0 to 49% and the pest or weed control at 200 ppm (Pyricularia oryzae) was 80 to 100%.
`O=C1CNC(c2ccc(Oc3cccnc3)cc2)=NN1CC(F)(F)F` [Compound 59] showed a pest or weed control at 200 ppm (Leptosphaeria nodorum) of 50 to 79%, a pest or weed control at 200 ppm (Erysiphe cichoracaerum) of 0 to 49% and a pest or weed control at 200 ppm [1] of 80 to 100%. For the same molecule, the pest or weed control at 200 ppm (Colletotricum lagenarium) was 0 to 49%, the pest or weed control at 200 ppm (Phytophthora infestans) was 50 to 79% and the pest or weed control at 200 ppm (Pyricularia oryzae) was 50 to 79%.
`Cc1cc(C)cc(C2=NN(Cc3ccccn3)C(=O)CN2)c1` [Compound 5] was tested, and the pest or weed control at 200 ppm (Leptosphaeria nodorum) was 80 to 100%, the pest or weed control at 200 ppm (Erysiphe cichoracaerum) was 0 to 49% and the pest or weed control at 200 ppm [1] was 0 to 49%. It also gave a pest or weed control at 200 ppm (Colletotricum lagenarium) of 50 to 79%, a pest or weed control at 200 ppm (Phytophthora infestans) of 0 to 49% and a pest or weed control at 200 ppm (Pyricularia oryzae) of 0 to 49%.
Work on `O=C1CNC(c2cccc(Oc3nc4ccc(Cl)cc4s3)c2)=NN1CC(F)(F)F` [Compound 27] yielded a pest or weed control at 200 ppm (Leptosphaeria nodorum) of 80 to 100%, a pest or weed control at 200 ppm (Erysiphe cichoracaerum) of 0 to 49% and a pest or weed control at 200 ppm [1] of 80 to 100%. The pest or weed control at 200 ppm (Colletotricum lagenarium) was 50 to 79%, the pest or weed control at 200 ppm (Phytophthora infestans) was 0 to 49% and the pest or weed control at 200 ppm (Pyricularia oryzae) was 80 to 100%.
For `O=C1CNC(c2cccc(-c3ccc(Oc4ccccc4)cc3)c2)=NN1CC(F)(F)F` [Compound 30], the pest or weed control at 200 ppm (Leptosphaeria nodorum) was 50 to 79%, the pest or weed control at 200 ppm (Erysiphe cichoracaerum) was 0 to 49% and the pest or weed control at 200 ppm [1] was 50 to 79%. The pest or weed control at 200 ppm (Colletotricum lagenarium) was 0 to 49%, the pest or weed control at 200 ppm (Phytophthora infestans) was 0 to 49% and the pest or weed control at 200 ppm (Pyricularia oryzae) was 0 to 49%.
In the case of `O=c1cnc(-c2cc(Br)cc(-c3ccsc3)c2)nn1Cc1ccccc1` [Compound 82], the pest or weed control at 200 ppm (Leptosphaeria nodorum) is reported as 80 to 100%, the pest or weed control at 200 ppm (Erysiphe cichoracaerum) is reported as 0 to 49% and the pest or weed control at 200 ppm [1] is reported as 0 to 49%. It also gave a pest or weed control at 200 ppm (Colletotricum lagenarium) of 0 to 49%, a pest or weed control at 200 ppm (Phytophthora infestans) of 0 to 49% and a pest or weed control at 200 ppm (Pyricularia oryzae) of 50 to 79%.
`O=c1cnc(-c2cc(Br)cc(-c3ccsc3)c2)nn1CCc1ccccc1` [Compound 83] showed a pest or weed control at 200 ppm (Leptosphaeria nodorum) of 50 to 79%, a pest or weed control at 200 ppm (Erysiphe cichoracaerum) of 0 to 49% and a pest or weed control at 200 ppm [1] of 0 to 49%. It also gave a pest or weed control at 200 ppm (Colletotricum lagenarium) of 0 to 49%, a pest or weed control at 200 ppm (Phytophthora infestans) of 0 to 49% and a pest or weed control at 200 ppm (Pyricularia oryzae) of 0 to 49%.
Work on `O=c1cnc(-c2ccc(-c3ccc(Cl)s3)nc2)nn1CC(F)(F)F` [Compound 88] yielded a pest or weed control at 200 ppm (Leptosphaeria nodorum) of 50 to 79%, a pest or weed control at 200 ppm (Erysiphe cichoracaerum) of 0 to 49% and a pest or weed control at 200 ppm [1] of 0 to 49%. It also gave a pest or weed control at 200 ppm (Colletotricum lagenarium) of 0 to 49%, a pest or weed control at 200 ppm (Phytophthora infestans) of 0 to 49% and a pest or weed control at 200 ppm (Pyricularia oryzae) of 0 to 49%.
`Cc1cc(C)cc(C2=NN(CCOc3ccccc3)C(=O)CN2)c1` [Compound 64] showed a pest or weed control at 200 ppm (Leptosphaeria nodorum) of 80 to 100%, a pest or weed control at 200 ppm (Erysiphe cichoracaerum) of 0 to 49% and a pest or weed control at 200 ppm [1] of 80 to 100%. The pest or weed control at 200 ppm (Colletotricum lagenarium) was 50 to 79%, the pest or weed control at 200 ppm (Phytophthora infestans) was 0 to 49% and the pest or weed control at 200 ppm (Pyricularia oryzae) was 80 to 100%.
Work on `O=C1CNC(c2cc(C=Cc3ccccc3)cc(-c3ccsc3)c2)=NN1CC(F)(F)F` [Compound 26] yielded a pest or weed control at 200 ppm (Leptosphaeria nodorum) of 50 to 79%, a pest or weed control at 200 ppm (Erysiphe cichoracaerum) of 0 to 49% and a pest or weed control at 200 ppm [1] of 0 to 49%. It also gave a pest or weed control at 200 ppm (Colletotricum lagenarium) of 0 to 49%, a pest or weed control at 200 ppm (Phytophthora infestans) of 0 to 49% and a pest or weed control at 200 ppm (Pyricularia oryzae) of 0 to 49%.
In the case of `O=c1cnc(-c2ccc(F)c(Br)c2)nn1Cc1ccc(Cl)nc1` [Compound 97, (3-bromo-4-fluoro-phenyl)-1-(6-chloro-pyridin-3-ylmethyl)-1H-[1,2,4]triazin-6-one], the pest or weed control at 200 ppm (Leptosphaeria nodorum) is reported as 80 to 100%, the pest or weed control at 200 ppm (Erysiphe cichoracaerum) is reported as 0 to 49% and the pest or weed control at 200 ppm [1] is reported as 80 to 100%. For the same molecule, the pest or weed control at 200 ppm (Colletotricum lagenarium) was 50 to 79%, the pest or weed control at 200 ppm (Phytophthora infestans) was 0 to 49% and the pest or weed control at 200 ppm (Pyricularia oryzae) was 80 to 100%.
Molecule `O=C1C(SC2CCCCC2)NC(c2cccc(/C=C\c3ccccc3)c2)=NN1CC(F)(F)F` (stereo not shown) [Compound 47] has a pest or weed control at 200 ppm (Leptosphaeria nodorum) of 80 to 100%, a pest or weed control at 200 ppm (Erysiphe cichoracaerum) of 80 to 100% and a pest or weed control at 200 ppm [1] of 80 to 100%. The pest or weed control at 200 ppm (Colletotricum lagenarium) was 80 to 100%, the pest or weed control at 200 ppm (Phytophthora infestans) was 0 to 49% and the pest or weed control at 200 ppm (Pyricularia oryzae) was 80 to 100%.
Molecule `Cc1cc(C)cc(C2=NN(CC(F)(F)F)C(=O)C(OCc3ccccc3)N2)c1` (stereo not shown) [Compound 40] has a pest or weed control at 200 ppm (Leptosphaeria nodorum) of 80 to 100%, a pest or weed control at 200 ppm (Erysiphe cichoracaerum) of 0 to 49% and a pest or weed control at 200 ppm [1] of 80 to 100%. The pest or weed control at 200 ppm (Colletotricum lagenarium) was 80 to 100%, the pest or weed control at 200 ppm (Phytophthora infestans) was 0 to 49% and the pest or weed control at 200 ppm (Pyricularia oryzae) was 80 to 100%.
With `O=C1C(SC2CCCCC2)NC(c2ccc(F)c(-c3ccccc3)c2)=NN1CC(F)(F)F` (stereo not shown) [Compound 48] the pest or weed control at 200 ppm (Leptosphaeria nodorum) was 80 to 100%, the pest or weed control at 200 ppm (Erysiphe cichoracaerum) was 0 to 49% and the pest or weed control at 200 ppm [1] was 80 to 100%. It also gave a pest or weed control at 200 ppm (Pyricularia oryzae) of 80 to 100%.
